# Target: human fatty acid synthase FASN (Homo sapiens (Human), UniProt P49327)
# Assay: Biochemical activity testing of human fatty acid synthase FASN (NADPH fluorescence intensity enzyme assay)
# Conditions: human recombinant full-length fatty acid synthase
# How it was run: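 In-house Sf9-expressed full-length enzyme (3 μL of 40 nM) in 50 mM potassium phosphate pH 7.0 with glutathione, BSA and Tween-20, plus NADPH (2 μL of 200 μM), preincubated ≥15 min with compound (10 concentrations from 30 μM final, 1% DMSO). Acetyl-CoA/malonyl-CoA added; NADPH fluorescence (ex 340/em 460 nm) read before and after 30 min at room temperature, difference used for IC50.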
# Chain of human fatty acid synthase FASN (P49327 whole entry): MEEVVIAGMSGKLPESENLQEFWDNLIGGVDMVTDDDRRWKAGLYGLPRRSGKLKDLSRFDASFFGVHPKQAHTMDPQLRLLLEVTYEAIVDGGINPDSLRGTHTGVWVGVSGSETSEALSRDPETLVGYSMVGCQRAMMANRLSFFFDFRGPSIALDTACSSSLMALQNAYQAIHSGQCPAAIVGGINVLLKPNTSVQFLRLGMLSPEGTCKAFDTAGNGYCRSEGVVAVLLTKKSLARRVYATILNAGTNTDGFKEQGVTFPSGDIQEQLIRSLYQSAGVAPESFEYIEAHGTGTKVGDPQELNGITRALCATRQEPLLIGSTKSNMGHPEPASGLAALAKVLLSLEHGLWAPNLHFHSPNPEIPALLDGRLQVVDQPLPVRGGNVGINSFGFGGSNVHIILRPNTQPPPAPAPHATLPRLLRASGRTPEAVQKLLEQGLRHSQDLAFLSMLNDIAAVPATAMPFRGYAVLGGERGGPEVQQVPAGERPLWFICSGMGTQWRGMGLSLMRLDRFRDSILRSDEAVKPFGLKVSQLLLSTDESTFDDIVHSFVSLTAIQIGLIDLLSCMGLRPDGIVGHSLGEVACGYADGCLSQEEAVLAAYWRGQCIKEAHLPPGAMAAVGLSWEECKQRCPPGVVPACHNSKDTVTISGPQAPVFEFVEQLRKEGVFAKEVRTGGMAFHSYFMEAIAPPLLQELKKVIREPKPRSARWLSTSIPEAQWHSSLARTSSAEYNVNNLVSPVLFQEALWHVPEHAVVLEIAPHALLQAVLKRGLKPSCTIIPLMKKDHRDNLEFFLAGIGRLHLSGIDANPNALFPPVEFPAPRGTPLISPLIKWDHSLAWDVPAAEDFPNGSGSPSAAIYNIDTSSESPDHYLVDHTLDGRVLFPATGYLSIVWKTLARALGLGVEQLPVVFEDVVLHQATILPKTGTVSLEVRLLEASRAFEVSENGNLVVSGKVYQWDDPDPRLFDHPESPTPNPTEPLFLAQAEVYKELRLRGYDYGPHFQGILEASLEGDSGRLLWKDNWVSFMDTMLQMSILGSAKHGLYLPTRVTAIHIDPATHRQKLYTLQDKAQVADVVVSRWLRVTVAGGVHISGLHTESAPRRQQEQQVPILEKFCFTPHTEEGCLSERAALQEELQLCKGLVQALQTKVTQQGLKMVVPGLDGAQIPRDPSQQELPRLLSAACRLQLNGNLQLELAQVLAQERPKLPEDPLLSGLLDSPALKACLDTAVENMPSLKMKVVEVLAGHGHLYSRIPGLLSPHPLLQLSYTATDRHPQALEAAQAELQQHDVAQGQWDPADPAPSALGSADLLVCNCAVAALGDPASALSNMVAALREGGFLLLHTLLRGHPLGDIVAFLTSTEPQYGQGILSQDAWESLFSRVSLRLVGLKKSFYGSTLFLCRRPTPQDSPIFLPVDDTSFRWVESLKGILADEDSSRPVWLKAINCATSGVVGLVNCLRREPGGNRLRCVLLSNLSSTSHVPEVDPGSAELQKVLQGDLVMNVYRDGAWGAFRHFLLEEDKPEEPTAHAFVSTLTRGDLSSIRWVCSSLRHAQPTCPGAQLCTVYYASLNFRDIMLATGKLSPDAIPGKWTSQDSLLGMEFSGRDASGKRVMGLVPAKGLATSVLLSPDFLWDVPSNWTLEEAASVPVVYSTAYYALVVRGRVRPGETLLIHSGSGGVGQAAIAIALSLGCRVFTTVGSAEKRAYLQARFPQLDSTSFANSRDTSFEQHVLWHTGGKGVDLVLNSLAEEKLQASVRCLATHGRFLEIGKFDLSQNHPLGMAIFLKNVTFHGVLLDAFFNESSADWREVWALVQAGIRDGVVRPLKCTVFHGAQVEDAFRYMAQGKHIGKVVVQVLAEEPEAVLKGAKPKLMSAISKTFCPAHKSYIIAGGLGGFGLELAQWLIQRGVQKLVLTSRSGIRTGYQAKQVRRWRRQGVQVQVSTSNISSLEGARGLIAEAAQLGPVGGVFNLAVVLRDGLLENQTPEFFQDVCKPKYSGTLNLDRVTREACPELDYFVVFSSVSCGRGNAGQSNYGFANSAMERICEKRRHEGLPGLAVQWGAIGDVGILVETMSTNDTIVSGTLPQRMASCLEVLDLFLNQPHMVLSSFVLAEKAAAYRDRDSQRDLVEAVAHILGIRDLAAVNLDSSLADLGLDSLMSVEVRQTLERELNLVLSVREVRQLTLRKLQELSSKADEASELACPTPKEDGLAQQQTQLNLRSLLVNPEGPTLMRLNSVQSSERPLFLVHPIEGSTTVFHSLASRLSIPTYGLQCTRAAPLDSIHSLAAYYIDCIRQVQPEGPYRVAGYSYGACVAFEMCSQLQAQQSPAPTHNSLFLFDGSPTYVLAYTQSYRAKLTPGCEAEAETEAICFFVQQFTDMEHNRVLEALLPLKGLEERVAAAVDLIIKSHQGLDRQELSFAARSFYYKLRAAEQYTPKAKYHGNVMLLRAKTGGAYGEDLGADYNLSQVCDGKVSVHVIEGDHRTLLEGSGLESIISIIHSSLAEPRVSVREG
row,Compound,IC50 [µM]
1,"CCC(=O)N[C@H]1CC[C@@H](N(C)C(=O)c2ccc(-c3nc4ccc(F)cc4o3)cc2)C1 [Compound A127, 4-(6-fluoro-benzoxazol-2-yl)-N-methyl-N-((1R,3S)-3-propionylamino-cyclopentyl)-benzamide]",< 0.3
2,"CCC(=O)N[C@H]1CC[C@@H](N(C)C(=O)c2ccc(-c3nc4ccc(Cl)cc4o3)cc2)C1 [Compound A128, 4-(6-chloro-benzoxazol-2-yl)-N-methyl-N-((1R,3S)-3-propionylamino-cyclopentyl)-benzamide]",< 0.3
3,"CCC(=O)N[C@H]1CC[C@@H](N(C)C(=O)c2ccc(-c3ccc4[nH]ccc4n3)cc2)C1 [Compound A129, N-methyl-N-((1R,3S)-3-propionylamino-cyclopentyl)-4-(1H-pyrrolo[3,2-b]pyridin-5-yl)-benzamide]",< 0.3
4,"CCC(=O)N[C@H]1CC[C@@H](N(C)C(=O)c2ccc(-c3ccc4[nH]cc(CN)c4c3)cc2)C1 [Compound A130, 4-(3-aminomethyl-1H-indol-5-yl)-N-methyl-N-((1R,3S)-3-propionylamino-cyclopentyl)-benzamide]",< 0.3
5,"CCC(=O)N[C@H]1CC[C@@H](N(C)C(=O)c2ncc(-c3ccc4[nH]ccc4c3)cn2)C1 [Compound A131, 5-(1H-indol-5-yl)-pyrimidine-2-carboxylic acid methyl-((1R,3S)-3-propionylamino-cyclopentyl)-amide]",< 0.3
6,"CCC(=O)N[C@H]1CC[C@@H](N(C)C(=O)c2cnc(-c3ccc4[nH]ccc4c3)cn2)C1 [Compound A132, 5-(1H-indol-5-yl)-pyrazine-2-carboxylic acid methyl-((1R,3S)-3-propionylamino-cyclopentyl)-amide]",< 0.3
7,"CCC(=O)N[C@H]1CC[C@@H](N(C)C(=O)c2ncc(-c3ccc4c(ccn4C)c3)cn2)C1 [Compound A133, 5-(1-methyl-1H-indol-5-yl)-pyrimidine-2-carboxylic acid methyl-((1R,3S)-3-propionylamino-cyclopentyl)-amide]",< 0.3
8,"CCC(=O)N[C@H]1CC[C@@H](N(C)C(=O)c2ccc(-c3cc(F)c4[nH]ccc4c3)nc2)C1 [Compound A134, 6-(7-fluoro-1H-indol-5-yl)-N-methyl-N-((1R,3S)-3-propionylamino-cyclopentyl)-nicotinamide]",0.3 to 3
9,"CCC(=O)N[C@H]1CC[C@@H](N(C)C(=O)c2ccc(-c3ccc4[nH]ccc4c3F)nc2)C1 [Compound A135, 6-(4-fluoro-1H-indol-5-yl)-N-methyl-N-((1R,3S)-3-propionylamino-cyclopentyl)-nicotinamide]",< 0.3
10,"CCC(=O)N[C@H]1CC[C@@H](N(C)C(=O)c2ccc(-c3cc(F)c4[nH]ccc4c3)nn2)C1 [Compound A136, 6-(7-fluoro-1H-indol-5-yl)-pyridazine-3-carboxylic acid methyl-((1R,3S)-3-propionylamino-cyclopentyl)-amide]",0.3 to 3
11,"CCC(=O)N[C@H]1CC[C@@H](N(C)C(=O)c2ccc(-c3ccc4[nH]ccc4c3F)nn2)C1 [Compound A137, 6-(4-fluoro-1H-indol-5-yl)-pyridazine-3-carboxylic acid methyl-((1R,3S)-3-propionylamino-cyclopentyl)-amide]",< 0.3
12,"CN(C(=O)c1ccc(-c2nc3ccc(Cl)cc3o2)cc1)[C@@H]1CC[C@H](NC(=O)[C@@H]2CCCO2)C1 [Compound A138, (S)-tetrahydro-furan-2-carboxylic acid ((1S,3R)-3-{[4-(6-chloro-benzooxazol-2-yl)-benzoyl]-methyl-amino}-cyclopentyl)-amide]",< 0.3
13,"CCC(=O)N[C@H]1CC[C@@H](N(C)C(=O)c2cnc(-c3ccc4[nH]ccc4c3)nc2)C1 [Compound A139, 2-(1H-indol-5-yl)-pyrimidine-5-carboxylic acid methyl-((1R,3S)-3-propionylamino-cyclopentyl)-amide]",< 0.3
14,"CCC(=O)N[C@H]1CC[C@@H](N(C)C(=O)c2cnc(-c3ccc4[nH]ccc4c3)c(F)c2)C1 [Compound A140, 5-fluoro-6-(1H-indol-5-yl)-N-methyl-N-((1R,3S)-3-propionylamino-cyclopentyl)-nicotinamide]",< 0.3
15,"CCC(=O)N[C@H]1CC[C@@H](N(C)C(=O)c2cnc(-c3cc(F)c4[nH]ccc4c3)cc2C)C1 [Compound A141, 6-(7-fluoro-1H-indol-5-yl)-4,N-dimethyl-N-((1R,3S)-3-propionylamino-cyclopentyl)-nicotinamide]",0.3 to 3
16,"CCC(=O)N[C@H]1CC[C@@H](N(C)C(=O)c2cnc(-c3cc(F)c4[nH]ccc4c3)c(F)c2)C1 [Compound A142, 5-fluoro-6-(7-fluoro-1H-indol-5-yl)-N-methyl-N-((1R,3S)-3-propionylamino-cyclopentyl)-nicotinamide]",0.3 to 3
17,"CCC(=O)N[C@H]1CC[C@@H](N(C)C(=O)c2cnc(-c3ccc4[nH]ccc4c3F)c(F)c2)C1 [Compound A143, 5-fluoro-6-(4-fluoro-1H-indol-5-yl)-N-methyl-N-((1R,3S)-3-propionylamino-cyclopentyl)-nicotinamide]",< 0.3

# Other lines, results leading:
row,IC50 [µM],Compound
1,< 0.3,"CCC(=O)N[C@H]1CC[C@@H](N(C)C(=O)c2ccc(-c3ccc4nccn4c3)nc2)C1 [Compound A144, 6-imidazo[1,2-a]pyridin-6-yl-N-methyl-N-((1R,3S)-3-propionylamino-cyclopentyl)-nicotinamide]"
2,0.3 to 3,"CCC(=O)N[C@H]1CC[C@@H](N(C)C(=O)c2ccc(-c3cc(F)c4c(c3)CCN4)nc2)C1 [Compound A145, 6-(7-fluoro-2,3-dihydro-1H-indol-5-yl)-N-methyl-N-((1R,3S)-3-propionylamino-cyclopentyl)-nicotinamide]"
3,< 0.3,"CCC(=O)N[C@H]1CC[C@@H](N(C)C(=O)c2cnc(-c3ccc4[nH]ccc4c3F)cc2C)C1 [Compound A146, 6-(4-fluoro-1H-indol-5-yl)-4,N-dimethyl-N-((1R,3S)-3-propionylamino-cyclopentyl)-nicotinamide]"
4,3 to 50,"CCC(=O)N[C@H]1CC[C@@H](N(C)C(=O)c2ccc(-c3ccc4c(c3)C(F)(F)C(=O)N4)nc2)C1 [Compound A147, 6-(3,3-difluoro-2-oxo-2,3-dihydro-1H-indol-5-yl)-N-methyl-N-((1R,3S)-3-propionylamino-cyclopentyl)-nicotinamide]"
5,0.3 to 3,"CCC(=O)N[C@H]1CC[C@@H](N(C)C(=O)c2cnc(-c3nc4ccc(Cl)cc4o3)cn2)C1 [Compound A148, 5-(6-chloro-benzoxazol-2-yl)-pyrazine-2-carboxylic acid methyl-((1R,3S)-3-propionylamino-cyclopentyl)-amide]"
6,0.3 to 3,"CN(C(=O)c1ncc(-c2nc3ccc(Cl)cc3o2)cn1)[C@@H]1CC[C@H](NC(=O)[C@@H]2CCCO2)C1 [Compound A149, 5-(6-chloro-benzoxazol-2-yl)-pyrimidine-2-carboxylic acid methyl-{(1R,3S)-3-[((S)-tetrahydro-furan-2-carbonyl)-amino]-cyclopentyl}-amide]"
7,< 0.3,"CCC(=O)N[C@H]1CC[C@@H](N(C)C(=O)c2ccc(-c3ccc4[nH]ccc4c3C)nn2)C1 [Compound A150, 6-(4-methyl-1H-indol-5-yl)-pyridazine-3-carboxylic acid methyl-((1R,3S)-3-propionylamino-cyclopentyl)-amide]"
8,< 0.3,"CCC(=O)N[C@H]1CC[C@@H](N(C)C(=O)c2ccc(-c3ccc4[nH]ccc4c3F)c(F)c2)C1 [Compound A151, 3-fluoro-4-(4-fluoro-1H-indol-5-yl)-N-methyl-N-((1R,3S)-3-propionylamino-cyclopentyl)-benzamide]"
9,< 0.3,"CCC(=O)N[C@H]1CC[C@@H](N(C)C(=O)c2ccc(-c3ccc4c(c3)c(CN)cn4C)cc2)C1 [Compound A152, 4-(3-aminomethyl-1-methyl-1H-indol-5-yl)-N-methyl-N-((1R,3S)-3-propionylamino-cyclopentyl)-benzamide]"
10,< 0.3,"CCC(=O)N[C@H]1CC[C@@H](N(C)C(=O)c2ccc(-c3nc4ccc(Cl)cc4o3)nc2)C1 [Compound A153, 6-(6-chloro-benzoxazol-2-yl)-N-methyl-N-((1R,3S)-3-propionylamino-cyclopentyl)-nicotinamide]"
11,< 0.3,"CN(C(=O)c1ccc(-c2nc3ccc(Cl)cc3o2)nc1)[C@@H]1CC[C@H](NC(=O)[C@@H]2CCCO2)C1 [Compound A154, 6-(6-chloro-benzoxazol-2-yl)-N-methyl-N-{(1R,3S)-3-[((S)-tetrahydro-furan-2-carbonyl)-amino]-cyclopentyl}-nicotinamide]"
12,3 to 50,"CCC(=O)N[C@H]1CC[C@@H](N(C)C(=O)c2ccc(-c3nc4ccc(Cl)cc4o3)nn2)C1 [Compound A155, 6-(6-chloro-benzoxazol-2-yl)-pyridazine-3-carboxylic acid methyl-((1R,3S)-3-propionylamino-cyclopentyl)-amide]"
13,3 to 50,"CCC(=O)N[C@H]1CC[C@@H](N(C)C(=O)c2ncc(-c3nc4ccc(Cl)cc4o3)cn2)C1 [Compound A156, 5-(6-chloro-benzoxazol-2-yl)-pyrimidine-2-carboxylic acid methyl-((1R,3S)-3-propionylamino-cyclopentyl)-amide]"
14,< 0.3,"CCC(=O)N[C@H]1CC[C@@H](N(C)C(=O)c2ccc(-c3ccc4cc[nH]c4c3F)nc2)C1 [Compound A157, 6-(7-fluoro-1H-indol-6-yl)-N-methyl-N-((1R,3S)-3-propionylamino-cyclopentyl)-nicotinamide]"
15,0.3 to 3,"CN(C(=O)c1ccc(-c2nc3ccc(Cl)cc3o2)nn1)[C@@H]1CC[C@H](NC(=O)[C@@H]2CCCO2)C1 [Compound A158, 6-(6-chloro-1,3-benzoxazol-2-yl)-N-methyl-N-[(1R,3S)-3-[[(2S)-tetrahydrofuran-2-carbonyl]amino]cyclopentyl]pyridazine-3-carboxamide]"

# — patent US9670142B2, “1,3-diaminocyclopentane carboxamide derivatives” (Merck Patent GmbH, priority 2013, dated 2017)
